Source: the supplement of paper PMC13207355
± gives the standard deviation of the averaged measurements.

Key:
Details in all cases: exposure time: 72 h
FT3469 [1] = normal neural stem cell line; assay: phenotypic distance (Euclidean, principal components) from DMSO controls (arbitrary units); higher = stronger morphological change
E21 [2] = patient-derived glioblastoma stem cells of mesenchymal subtype; assay: as above
E28 [3] = patient-derived glioblastoma stem cells of classical subtype; assay: as above
E57 [4] = patient-derived glioblastoma stem cells of mesenchymal subtype; assay: as above
E13 [5] = patient-derived glioblastoma stem cells of classical subtype; assay: as above
E34 [6] = patient-derived glioblastoma stem cells of proneural subtype; assay: as above
FT3469 [7] = assay: surviving fraction (nuclei count normalised to DMSO); higher = more cells surviving (less toxic)
E21 [8] = assay: as above
E28 [9] = assay: as above
E57 [10] = assay: as above
E13 [11] = assay: as above
E34 [12] = assay: as above
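Throughout, for phenotypic distance (Euclidean, principal components) from DMSO controls: cell Painting imaging in 384-well plates, CellProfiler features reduced to at least 20 principal components, Euclidean distance versus same-plate DMSO vehicle wells (0.1% v/v), median over six images per well.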
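Throughout, for surviving fraction (nuclei count normalised to DMSO): nuclei counted by high-content imaging of Hoechst-stained cells in laminin-coated 384-well plates, relative to 0.1% DMSO vehicle wells, with staurosporine as cell-death control.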

`Cc1cc(Nc2cc(CN3CCOCC3)c3nc(C)c(Cc4ccc(Cl)cc4F)n3n2)n[nH]1` [Gandotinib] was tested, and the phenotypic distance (FT3469 [1]; 4.1 nM) was 0.44 ± 0.23, the phenotypic distance (FT3469 [1]; 12.3 nM) was 0.627 ± 0.28 and the phenotypic distance (FT3469 [1]; 37 nM) was 0.479 ± 0.12. It also gave a phenotypic distance (FT3469 [1]; 111.1 nM) of 1.67 ± 1.5, a phenotypic distance (FT3469 [1]; 333.3 nM) of 0.785 ± 0.077 and a phenotypic distance (FT3469 [1]; 1000 nM) of 0.863 ± 0.31. It also gave a phenotypic distance (FT3469 [1]; 3000 nM) of 2.05 ± 0.44, a phenotypic distance (E21 [2]; 4.1 nM) of 1.3 ± 0.8 and a phenotypic distance (E21 [2]; 12.3 nM) of 0.9953 ± 0.0043. It also gave a phenotypic distance (E21 [2]; 37 nM) of 1.34 ± 0.25, a phenotypic distance (E21 [2]; 111.1 nM) of 1.92 ± 0.29 and a phenotypic distance (E21 [2]; 333.3 nM) of 2.89 ± 0.21. The phenotypic distance (E21 [2]; 1000 nM) was 4.83 ± 0.15, the phenotypic distance (E21 [2]; 3000 nM) was 9.25 ± 0.9 and the phenotypic distance (E28 [3]; 4.1 nM) was 0.402 ± 0.081. It also gave a phenotypic distance (E28 [3]; 12.3 nM) of 0.536 ± 0.22, a phenotypic distance (E28 [3]; 37 nM) of 0.979 ± 0.057 and a phenotypic distance (E28 [3]; 111.1 nM) of 1.01 ± 0.12. The phenotypic distance (E28 [3]; 333.3 nM) was 1.15 ± 0.086, the phenotypic distance (E28 [3]; 1000 nM) was 1.63 ± 0.33 and the phenotypic distance (E28 [3]; 3000 nM) was 3.72 ± 0.25. The phenotypic distance (E57 [4]; 4.1 nM) was 0.653 ± 0.12, the phenotypic distance (E57 [4]; 12.3 nM) was 0.688 ± 0.39 and the phenotypic distance (E57 [4]; 37 nM) was 1.33 ± 0.22. For the same compound, the phenotypic distance (E57 [4]; 111.1 nM) was 1.76 ± 0.15, the phenotypic distance (E57 [4]; 333.3 nM) was 2.18 ± 0.16 and the phenotypic distance (E57 [4]; 1000 nM) was 2.93 ± 0.22. It also gave a phenotypic distance (E57 [4]; 3000 nM) of 5.26 ± 0.74, a phenotypic distance (E13 [5]; 4.1 nM) of 0.676 ± 0.052 and a phenotypic distance (E13 [5]; 12.3 nM) of 0.87 ± 0.42. The phenotypic distance (E13 [5]; 37 nM) was 0.987 ± 0.23, the phenotypic distance (E13 [5]; 111.1 nM) was 1.47 ± 0.41 and the phenotypic distance (E13 [5]; 333.3 nM) was 1.57 ± 0.083. For the same compound, the phenotypic distance (E13 [5]; 1000 nM) was 1.9 ± 0.19, the phenotypic distance (E13 [5]; 3000 nM) was 2.7 ± 0.044 and the phenotypic distance (E34 [6]; 4.1 nM) was 1.52 ± 0.43. For the same compound, the phenotypic distance (E34 [6]; 12.3 nM) was 2.31 ± 0.2, the phenotypic distance (E34 [6]; 37 nM) was 3.63 ± 0.68 and the phenotypic distance (E34 [6]; 111.1 nM) was 5.44 ± 0.36. It also gave a phenotypic distance (E34 [6]; 333.3 nM) of 7.1 ± 0.9, a phenotypic distance (E34 [6]; 1000 nM) of 7.41 ± 0.58 and a phenotypic distance (E34 [6]; 3000 nM) of 7.42 ± 0.59. For the same compound, the surviving fraction (FT3469 [7]; 4.1 nM) was 0.931 ± 0.1, the surviving fraction (FT3469 [7]; 12.3 nM) was 0.889 ± 0.023 and the surviving fraction (FT3469 [7]; 37 nM) was 0.969 ± 0.014. For the same compound, the surviving fraction (FT3469 [7]; 111.1 nM) was 0.97 ± 0.044, the surviving fraction (FT3469 [7]; 333.3 nM) was 0.9328 ± 0.0038 and the surviving fraction (FT3469 [7]; 1000 nM) was 0.806 ± 0.068. The surviving fraction (FT3469 [7]; 3000 nM) was 0.584 ± 0.046, the surviving fraction (E21 [8]; 4.1 nM) was 1.07 ± 0.078 and the surviving fraction (E21 [8]; 12.3 nM) was 1.02 ± 0.018. For the same compound, the surviving fraction (E21 [8]; 37 nM) was 1.03 ± 0.049, the surviving fraction (E21 [8]; 111.1 nM) was 0.918 ± 0.025 and the surviving fraction (E21 [8]; 333.3 nM) was 0.724 ± 0.0084. The surviving fraction (E21 [8]; 1000 nM) was 0.505 ± 0.012, the surviving fraction (E21 [8]; 3000 nM) was 0.164 ± 0.071 and the surviving fraction (E28 [9]; 4.1 nM) was 1.03 ± 0.024. For the same compound, the surviving fraction (E28 [9]; 12.3 nM) was 0.979 ± 0.075, the surviving fraction (E28 [9]; 37 nM) was 1.06 ± 0.019 and the surviving fraction (E28 [9]; 111.1 nM) was 1.02 ± 0.091. It also gave a surviving fraction (E28 [9]; 333.3 nM) of 0.865 ± 0.13, a surviving fraction (E28 [9]; 1000 nM) of 0.673 ± 0.059 and a surviving fraction (E28 [9]; 3000 nM) of 0.335 ± 0.004. For the same compound, the surviving fraction (E57 [10]; 4.1 nM) was 1.061 ± 0.009, the surviving fraction (E57 [10]; 12.3 nM) was 0.946 ± 0.027 and the surviving fraction (E57 [10]; 37 nM) was 0.903 ± 0.097. It also gave a surviving fraction (E57 [10]; 111.1 nM) of 0.781 ± 0.028, a surviving fraction (E57 [10]; 333.3 nM) of 0.534 ± 0.032 and a surviving fraction (E57 [10]; 1000 nM) of 0.42 ± 0.029. For the same compound, the surviving fraction (E57 [10]; 3000 nM) was 0.193 ± 0.047, the surviving fraction (E13 [11]; 4.1 nM) was 1.02 ± 0.093 and the surviving fraction (E13 [11]; 12.3 nM) was 0.923 ± 0.012. For the same compound, the surviving fraction (E13 [11]; 37 nM) was 0.933 ± 0.02, the surviving fraction (E13 [11]; 111.1 nM) was 0.946 ± 0.038 and the surviving fraction (E13 [11]; 333.3 nM) was 0.818 ± 0.03. It also gave a surviving fraction (E13 [11]; 1000 nM) of 0.791 ± 0.045, a surviving fraction (E13 [11]; 3000 nM) of 0.626 ± 0.02 and a surviving fraction (E34 [12]; 4.1 nM) of 0.94 ± 0.011. For the same compound, the surviving fraction (E34 [12]; 12.3 nM) was 0.77 ± 0.079, the surviving fraction (E34 [12]; 37 nM) was 0.6589 ± 0.0013 and the surviving fraction (E34 [12]; 111.1 nM) was 0.511 ± 0.065. It also gave a surviving fraction (E34 [12]; 333.3 nM) of 0.44 ± 0.049, a surviving fraction (E34 [12]; 1000 nM) of 0.4 ± 0.016 and a surviving fraction (E34 [12]; 3000 nM) of 0.316 ± 0.016.
